{"source": "the supplement of paper PMC10307832", "assay_in_all_cases": "relative viability (nuclei count vs DMSO), 5 days (fraction); higher = more cells survive", "key": {"201T": {"test_system": "201T", "outline": "(§1)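 Five library-drug doses in √10 steps were combined with a fixed anchor-drug dose, or a single drug was given alone, by pin tool to lung cancer cell lines in 1536-well plates the day after seeding. Nuclei were stained and counted after 5 days. Relative viability is the nuclei count in treated wells over that in vehicle wells, taken as the median of duplicate plates.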"}, "NCI-H727": {"test_system": "NCI-H727", "outline": "as §1"}, "NCI-H460": {"test_system": "NCI-H460", "outline": "as §1"}, "PC-3 [JPC-3]": {"test_system": "PC-3 [JPC-3]", "outline": "as §1"}, "CAL-12T": {"test_system": "CAL-12T", "outline": "as §1"}, "LK-2": {"test_system": "LK-2", "outline": "as §1"}, "HCC-15": {"test_system": "HCC-15", "outline": "as §1"}, "NCI-H1651": {"test_system": "NCI-H1651", "outline": "as §1"}, "NCI-H322M": {"test_system": "NCI-H322M", "outline": "as §1"}, "NCI-H358": {"test_system": "NCI-H358", "outline": "as §1"}, "HCC-44": {"test_system": "HCC-44", "outline": "as §1"}, "NCI-H838": {"test_system": "NCI-H838", "outline": "as §1"}, "SW 900": {"test_system": "SW 900", "outline": "as §1"}, "EMC-BAC-2": {"test_system": "EMC-BAC-2", "outline": "as §1"}, "ABC-1": {"test_system": "ABC-1", "outline": "as §1"}, "NCI-H522": {"test_system": "NCI-H522", "outline": "as §1"}, "LU99A": {"test_system": "LU99A", "outline": "as §1"}, "EKVX": {"test_system": "EKVX", "outline": "as §1"}, "BEN": {"test_system": "BEN", "outline": "as §1"}}, "data": [{"compound": "CCNC(=O)c1noc(-c2cc(C(C)C)c(O)cc2O)c1-c1ccc(CN2CCOCC2)cc1", "note": "[Luminespib] + NC(=O)Nc1cc(-c2cccc(F)c2)sc1C(=O)N[C@H]1CCCNC1 [AZD7762] (partner 0.2 µM)", "values": [{"measurement": "relative viability", "setting": "201T; first compound 0.002 µM", "result": 0.621}, {"measurement": "relative viability", "setting": "201T; first compound 0.006325 µM", "result": 0.555}, {"measurement": "relative viability", "setting": "201T; first compound 0.02 µM", "result": 0.525}, {"measurement": "relative viability", "setting": "201T; first compound 0.06325 µM", "result": 0.516}, {"measurement": "relative viability", "setting": "201T; first compound 0.2 µM", "result": 0.318}, {"measurement": "relative viability", "setting": "NCI-H727; first compound 0.002 µM", "result": 0.53}, {"measurement": "relative viability", "setting": "NCI-H727; first compound 0.006325 µM", "result": 0.493}, {"measurement": "relative viability", "setting": "NCI-H727; first compound 0.02 µM", "result": 0.57}, {"measurement": "relative viability", "setting": "NCI-H727; first compound 0.06325 µM", "result": 0.36}, {"measurement": "relative viability", "setting": "NCI-H727; first compound 0.2 µM", "result": 0.323}, {"measurement": "relative viability", "setting": "NCI-H460; first compound 0.002 µM", "result": 0.679}, {"measurement": "relative viability", "setting": "NCI-H460; first compound 0.006325 µM", "result": 0.628}, {"measurement": "relative viability", "setting": "NCI-H460; first compound 0.02 µM", "result": 0.717}, {"measurement": "relative viability", "setting": "NCI-H460; first compound 0.06325 µM", "result": 0.0326}, {"measurement": "relative viability", "setting": "NCI-H460; first compound 0.2 µM", "result": 0.0406}, {"measurement": "relative viability", "setting": "PC-3 [JPC-3]; first compound 0.002 µM", "result": 0.747}, {"measurement": "relative viability", "setting": "PC-3 [JPC-3]; first compound 0.006325 µM", "result": 0.86}, {"measurement": "relative viability", "setting": "PC-3 [JPC-3]; first compound 0.02 µM", "result": 0.492}, {"measurement": "relative viability", "setting": "PC-3 [JPC-3]; first compound 0.06325 µM", "result": 0.319}, {"measurement": "relative viability", "setting": "PC-3 [JPC-3]; first compound 0.2 µM", "result": 0.337}, {"measurement": "relative viability", "setting": "CAL-12T; first compound 0.002 µM", "result": 0.698}, {"measurement": "relative viability", "setting": "CAL-12T; first compound 0.006325 µM", "result": 0.691}, {"measurement": "relative viability", "setting": "CAL-12T; first compound 0.02 µM", "result": 0.542}, {"measurement": "relative viability", "setting": "CAL-12T; first compound 0.06325 µM", "result": 0.188}, {"measurement": "relative viability", "setting": "CAL-12T; first compound 0.2 µM", "result": 0.182}, {"measurement": "relative viability", "setting": "LK-2; first compound 0.002 µM", "result": 0.37}, {"measurement": "relative viability", "setting": "LK-2; first compound 0.006325 µM", "result": 0.481}, {"measurement": "relative viability", "setting": "LK-2; first compound 0.02 µM", "result": 0.278}, {"measurement": "relative viability", "setting": "LK-2; first compound 0.06325 µM", "result": 0.0715}, {"measurement": "relative viability", "setting": "LK-2; first compound 0.2 µM", "result": 0.0593}, {"measurement": "relative viability", "setting": "HCC-15; first compound 0.002 µM", "result": 1.11}, {"measurement": "relative viability", "setting": "HCC-15; first compound 0.006325 µM", "result": 1.11}, {"measurement": "relative viability", "setting": "HCC-15; first compound 0.02 µM", "result": 1.36}, {"measurement": "relative viability", "setting": "HCC-15; first compound 0.06325 µM", "result": 1.14}, {"measurement": "relative viability", "setting": "HCC-15; first compound 0.2 µM", "result": 0.247}, {"measurement": "relative viability", "setting": "NCI-H1651; first compound 0.002 µM", "result": 0.445}, {"measurement": "relative viability", "setting": "NCI-H1651; first compound 0.006325 µM", "result": 0.441}, {"measurement": "relative viability", "setting": "NCI-H1651; first compound 0.02 µM", "result": 0.277}, {"measurement": "relative viability", "setting": "NCI-H1651; first compound 0.06325 µM", "result": 0.446}, {"measurement": "relative viability", "setting": "NCI-H1651; first compound 0.2 µM", "result": 0.181}, {"measurement": "relative viability", "setting": "NCI-H322M; first compound 0.002 µM", "result": 0.585}, {"measurement": "relative viability", "setting": "NCI-H322M; first compound 0.006325 µM", "result": 0.485}, {"measurement": "relative viability", "setting": "NCI-H322M; first compound 0.02 µM", "result": 0.441}, {"measurement": "relative viability", "setting": "NCI-H322M; first compound 0.06325 µM", "result": 0.376}, {"measurement": "relative viability", "setting": "NCI-H322M; first compound 0.2 µM", "result": 0.391}, {"measurement": "relative viability", "setting": "NCI-H358; first compound 0.002 µM", "result": 0.607}, {"measurement": "relative viability", "setting": "NCI-H358; first compound 0.006325 µM", "result": 0.632}, {"measurement": "relative viability", "setting": "NCI-H358; first compound 0.02 µM", "result": 0.316}, {"measurement": "relative viability", "setting": "NCI-H358; first compound 0.06325 µM", "result": 0.14}, {"measurement": "relative viability", "setting": "NCI-H358; first compound 0.2 µM", "result": 0.134}, {"measurement": "relative viability", "setting": "HCC-44; first compound 0.002 µM", "result": 1.04}, {"measurement": "relative viability", "setting": "HCC-44; first compound 0.006325 µM", "result": 0.995}, {"measurement": "relative viability", "setting": "HCC-44; first compound 0.02 µM", "result": 1.15}, {"measurement": "relative viability", "setting": "HCC-44; first compound 0.06325 µM", "result": 1.07}, {"measurement": "relative viability", "setting": "HCC-44; first compound 0.2 µM", "result": 0.959}, {"measurement": "relative viability", "setting": "NCI-H838; first compound 0.002 µM", "result": 0.994}, {"measurement": "relative viability", "setting": "NCI-H838; first compound 0.006325 µM", "result": 0.89}, {"measurement": "relative viability", "setting": "NCI-H838; first compound 0.02 µM", "result": 0.775}, {"measurement": "relative viability", "setting": "NCI-H838; first compound 0.06325 µM", "result": 0.625}, {"measurement": "relative viability", "setting": "NCI-H838; first compound 0.2 µM", "result": 0.597}, {"measurement": "relative viability", "setting": "SW 900; first compound 0.002 µM", "result": 0.667}, {"measurement": "relative viability", "setting": "SW 900; first compound 0.006325 µM", "result": 0.752}, {"measurement": "relative viability", "setting": "SW 900; first compound 0.02 µM", "result": 0.396}, {"measurement": "relative viability", "setting": "SW 900; first compound 0.06325 µM", "result": 0.129}, {"measurement": "relative viability", "setting": "SW 900; first compound 0.2 µM", "result": 0.13}, {"measurement": "relative viability", "setting": "EMC-BAC-2; first compound 0.002 µM", "result": 1.12}, {"measurement": "relative viability", "setting": "EMC-BAC-2; first compound 0.006325 µM", "result": 0.655}, {"measurement": "relative viability", "setting": "EMC-BAC-2; first compound 0.02 µM", "result": 0.689}, {"measurement": "relative viability", "setting": "EMC-BAC-2; first compound 0.06325 µM", "result": 0.769}, {"measurement": "relative viability", "setting": "EMC-BAC-2; first compound 0.2 µM", "result": 0.226}, {"measurement": "relative viability", "setting": "ABC-1; first compound 0.002 µM", "result": 0.822}, {"measurement": "relative viability", "setting": "ABC-1; first compound 0.006325 µM", "result": 0.737}, {"measurement": "relative viability", "setting": "ABC-1; first compound 0.02 µM", "result": 0.715}, {"measurement": "relative viability", "setting": "ABC-1; first compound 0.06325 µM", "result": 0.248}, {"measurement": "relative viability", "setting": "ABC-1; first compound 0.2 µM", "result": 0.212}, {"measurement": "relative viability", "setting": "NCI-H522; first compound 0.002 µM", "result": 0.866}, {"measurement": "relative viability", "setting": "NCI-H522; first compound 0.006325 µM", "result": 0.93}, {"measurement": "relative viability", "setting": "NCI-H522; first compound 0.02 µM", "result": 0.694}, {"measurement": "relative viability", "setting": "NCI-H522; first compound 0.06325 µM", "result": 0.713}, {"measurement": "relative viability", "setting": "NCI-H522; first compound 0.2 µM", "result": 0.353}, {"measurement": "relative viability", "setting": "LU99A; first compound 0.002 µM", "result": 0.378}, {"measurement": "relative viability", "setting": "LU99A; first compound 0.006325 µM", "result": 0.347}, {"measurement": "relative viability", "setting": "LU99A; first compound 0.02 µM", "result": 0.214}, {"measurement": "relative viability", "setting": "LU99A; first compound 0.06325 µM", "result": 0.0724}, {"measurement": "relative viability", "setting": "LU99A; first compound 0.2 µM", "result": 0.0654}, {"measurement": "relative viability", "setting": "EKVX; first compound 0.002 µM", "result": 0.669}, {"measurement": "relative viability", "setting": "EKVX; first compound 0.006325 µM", "result": 0.68}, {"measurement": "relative viability", "setting": "EKVX; first compound 0.02 µM", "result": 0.475}, {"measurement": "relative viability", "setting": "EKVX; first compound 0.06325 µM", "result": 0.239}, {"measurement": "relative viability", "setting": "EKVX; first compound 0.2 µM", "result": 0.104}, {"measurement": "relative viability", "setting": "BEN; first compound 0.002 µM", "result": 0.687}, {"measurement": "relative viability", "setting": "BEN; first compound 0.006325 µM", "result": 0.669}, {"measurement": "relative viability", "setting": "BEN; first compound 0.02 µM", "result": 0.405}, {"measurement": "relative viability", "setting": "BEN; first compound 0.06325 µM", "result": 0.516}, {"measurement": "relative viability", "setting": "BEN; first compound 0.2 µM", "result": 0.272}]}]}
